Source: patent US11208412B2 (DAEGU-GYEONGBUK MEDICAL INNOVATION FOUNDATION, priority 2017, dated 2021)

Tests used:
Experiment in all cases: Kinase selectivity, DiscoverX scanMAX Kinase assay panel (% control)
Format in all cases: binding
[1] = molecular target: T1, kinases of the scanMAX Kinase assay panel (Homo sapiens, UniProt P23458); conditions: 1 uM
T1 construct: purchased DiscoverX Co. (contract measurement) scanMAX Kinase assay panel
In short: (§1)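 Binding-panel profiling at one concentration, 1 uM in DMSO; values are % of DMSO control after subtracting the positive-control floor. Less than 35% means activity on that kinase.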

[2] = molecular target: T2, kinases of the scanMAX Kinase assay panel (Homo sapiens, UniProt Q9H1R3); conditions: MYLK2; 1 uM
T2 construct: purchased DiscoverX Co. (contract measurement) scanMAX Kinase assay panel
In short: as §1

[3] = molecular target: T3, kinases of the scanMAX Kinase assay panel (Homo sapiens, UniProt P43405); conditions: kinase SYK; 1 uM in DMSO
T3 construct: purchased DiscoverX Co. (contract measurement) scanMAX Kinase assay panel
In short: as §1

[4] = molecular target: T4, kinases of the scanMAX Kinase assay panel (Homo sapiens, UniProt Q96L34); conditions: MARK4; 1 uM
T4 construct: purchased DiscoverX Co. (contract measurement) scanMAX Kinase assay panel
T4 sequence (Q96L34 1-752): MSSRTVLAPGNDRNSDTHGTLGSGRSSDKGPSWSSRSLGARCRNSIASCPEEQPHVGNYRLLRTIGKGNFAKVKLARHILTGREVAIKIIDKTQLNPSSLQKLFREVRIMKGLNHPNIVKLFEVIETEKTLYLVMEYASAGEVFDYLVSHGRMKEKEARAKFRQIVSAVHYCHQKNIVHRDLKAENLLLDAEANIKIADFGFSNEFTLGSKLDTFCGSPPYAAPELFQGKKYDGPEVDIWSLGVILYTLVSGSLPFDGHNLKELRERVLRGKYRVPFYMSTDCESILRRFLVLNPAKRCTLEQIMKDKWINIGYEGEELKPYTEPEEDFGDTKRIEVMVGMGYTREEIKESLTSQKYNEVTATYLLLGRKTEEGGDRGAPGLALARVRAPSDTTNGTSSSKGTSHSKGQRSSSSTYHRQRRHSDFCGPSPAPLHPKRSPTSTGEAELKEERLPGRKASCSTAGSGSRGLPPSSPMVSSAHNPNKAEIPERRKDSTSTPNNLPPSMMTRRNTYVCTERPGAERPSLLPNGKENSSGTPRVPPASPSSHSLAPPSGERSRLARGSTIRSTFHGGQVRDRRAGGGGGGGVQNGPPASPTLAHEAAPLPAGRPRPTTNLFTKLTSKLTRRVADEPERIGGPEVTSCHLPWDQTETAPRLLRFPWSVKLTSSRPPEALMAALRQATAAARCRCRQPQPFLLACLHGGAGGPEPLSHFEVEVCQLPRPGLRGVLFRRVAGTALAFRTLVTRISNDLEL
In short: as §1

[5] = molecular target: T5, kinases of the scanMAX Kinase assay panel (Homo sapiens, UniProt Q96BR1); conditions: kinase SGK3; 1 uM in DMSO
T5 construct: purchased DiscoverX Co. (contract measurement) scanMAX Kinase assay panel
T5 sequence (Q96BR1 1-496): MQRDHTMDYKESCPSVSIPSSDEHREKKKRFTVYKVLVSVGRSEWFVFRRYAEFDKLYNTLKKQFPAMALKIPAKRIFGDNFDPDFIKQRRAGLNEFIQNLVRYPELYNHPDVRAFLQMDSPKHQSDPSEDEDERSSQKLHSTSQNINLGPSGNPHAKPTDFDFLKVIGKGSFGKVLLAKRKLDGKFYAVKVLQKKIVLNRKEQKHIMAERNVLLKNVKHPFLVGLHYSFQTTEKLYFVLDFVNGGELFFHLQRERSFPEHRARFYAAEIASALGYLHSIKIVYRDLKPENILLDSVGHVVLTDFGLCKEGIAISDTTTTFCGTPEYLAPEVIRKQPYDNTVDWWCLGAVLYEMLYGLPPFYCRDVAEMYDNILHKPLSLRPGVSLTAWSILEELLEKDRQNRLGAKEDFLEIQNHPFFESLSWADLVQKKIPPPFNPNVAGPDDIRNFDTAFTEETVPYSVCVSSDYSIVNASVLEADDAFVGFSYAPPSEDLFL
In short: as §1

[6] = molecular target: T6, kinases of the scanMAX Kinase assay panel (Homo sapiens, UniProt Q52WX2); conditions: kinase SBK1; 1 uM in DMSO
T6 construct: purchased DiscoverX Co. (contract measurement) scanMAX Kinase assay panel
In short: as §1

[7] = molecular target: T7, kinases of the scanMAX Kinase assay panel (Homo sapiens, UniProt P10721, A829P); conditions: KIT(A829P); 1 uM
T7 construct: purchased DiscoverX Co. (contract measurement) scanMAX Kinase assay panel
In short: as §1

[8] = molecular target: T8, kinases of the scanMAX Kinase assay panel (Homo sapiens, UniProt Q13627); conditions: DYRK1A; 1 uM
T8 construct: purchased DiscoverX Co. (contract measurement) scanMAX Kinase assay panel
In short: as §1

[9] = molecular target: T9, kinases of the scanMAX Kinase assay panel (Homo sapiens, UniProt O15264); conditions: p38-delta; 1 uM
T9 construct: purchased DiscoverX Co. (contract measurement) scanMAX Kinase assay panel
T9 sequence (O15264 1-365): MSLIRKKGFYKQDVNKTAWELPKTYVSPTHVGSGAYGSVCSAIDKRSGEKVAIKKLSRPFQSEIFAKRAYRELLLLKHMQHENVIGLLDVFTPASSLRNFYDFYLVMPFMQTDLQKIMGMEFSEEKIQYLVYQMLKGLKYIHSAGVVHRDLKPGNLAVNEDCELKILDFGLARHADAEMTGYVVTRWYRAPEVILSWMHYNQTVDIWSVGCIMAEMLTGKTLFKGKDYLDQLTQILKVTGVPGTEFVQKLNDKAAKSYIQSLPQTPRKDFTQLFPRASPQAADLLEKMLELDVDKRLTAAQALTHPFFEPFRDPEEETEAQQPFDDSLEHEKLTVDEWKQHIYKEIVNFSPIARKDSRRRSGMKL
In short: as §1

[10] = molecular target: T10, kinases of the scanMAX Kinase assay panel (Homo sapiens, UniProt Q9UQM7); conditions: CAMK2A; 1 uM
T10 construct: purchased DiscoverX Co. (contract measurement) scanMAX Kinase assay panel
In short: as §1

T7 sequence (P10721 26-976 A829P): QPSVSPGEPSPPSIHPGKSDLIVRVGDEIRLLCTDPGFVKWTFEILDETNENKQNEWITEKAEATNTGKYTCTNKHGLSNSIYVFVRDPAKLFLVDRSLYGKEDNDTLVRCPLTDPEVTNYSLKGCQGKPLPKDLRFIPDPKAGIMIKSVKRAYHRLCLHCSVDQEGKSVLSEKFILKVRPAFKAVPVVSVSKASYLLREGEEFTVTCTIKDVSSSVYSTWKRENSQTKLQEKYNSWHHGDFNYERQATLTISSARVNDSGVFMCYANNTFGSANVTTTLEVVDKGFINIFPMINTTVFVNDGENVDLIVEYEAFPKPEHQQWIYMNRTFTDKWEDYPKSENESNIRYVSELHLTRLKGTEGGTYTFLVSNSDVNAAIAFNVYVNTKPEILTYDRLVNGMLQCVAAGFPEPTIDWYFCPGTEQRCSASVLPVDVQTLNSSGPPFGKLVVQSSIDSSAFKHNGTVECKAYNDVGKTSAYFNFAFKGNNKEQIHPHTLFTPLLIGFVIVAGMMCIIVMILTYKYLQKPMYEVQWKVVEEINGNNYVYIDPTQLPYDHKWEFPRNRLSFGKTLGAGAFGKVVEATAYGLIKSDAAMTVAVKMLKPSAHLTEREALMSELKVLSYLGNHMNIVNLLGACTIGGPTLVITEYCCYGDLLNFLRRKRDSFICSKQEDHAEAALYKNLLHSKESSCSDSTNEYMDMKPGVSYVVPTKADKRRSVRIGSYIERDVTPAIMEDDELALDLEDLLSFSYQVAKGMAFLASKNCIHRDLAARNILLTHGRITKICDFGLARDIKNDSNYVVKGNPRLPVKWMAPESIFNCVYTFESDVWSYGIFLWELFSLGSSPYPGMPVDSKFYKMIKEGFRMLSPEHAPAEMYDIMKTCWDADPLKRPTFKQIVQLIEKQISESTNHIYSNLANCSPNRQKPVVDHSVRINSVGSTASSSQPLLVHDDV
T10 sequence (Q9UQM7 whole entry): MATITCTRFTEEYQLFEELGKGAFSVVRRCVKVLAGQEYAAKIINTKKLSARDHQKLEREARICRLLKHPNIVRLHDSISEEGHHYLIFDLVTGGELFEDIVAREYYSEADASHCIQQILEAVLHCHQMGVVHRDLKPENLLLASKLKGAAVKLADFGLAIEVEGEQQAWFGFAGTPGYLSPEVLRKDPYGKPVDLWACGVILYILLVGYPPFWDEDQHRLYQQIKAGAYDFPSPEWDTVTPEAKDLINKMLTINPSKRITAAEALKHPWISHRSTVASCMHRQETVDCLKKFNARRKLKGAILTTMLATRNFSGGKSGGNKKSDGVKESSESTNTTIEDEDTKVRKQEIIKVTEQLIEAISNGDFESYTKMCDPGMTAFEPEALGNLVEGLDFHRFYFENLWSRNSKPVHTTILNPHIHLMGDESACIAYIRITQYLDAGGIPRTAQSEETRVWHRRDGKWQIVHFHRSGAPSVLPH
T2 sequence (Q9H1R3 whole entry): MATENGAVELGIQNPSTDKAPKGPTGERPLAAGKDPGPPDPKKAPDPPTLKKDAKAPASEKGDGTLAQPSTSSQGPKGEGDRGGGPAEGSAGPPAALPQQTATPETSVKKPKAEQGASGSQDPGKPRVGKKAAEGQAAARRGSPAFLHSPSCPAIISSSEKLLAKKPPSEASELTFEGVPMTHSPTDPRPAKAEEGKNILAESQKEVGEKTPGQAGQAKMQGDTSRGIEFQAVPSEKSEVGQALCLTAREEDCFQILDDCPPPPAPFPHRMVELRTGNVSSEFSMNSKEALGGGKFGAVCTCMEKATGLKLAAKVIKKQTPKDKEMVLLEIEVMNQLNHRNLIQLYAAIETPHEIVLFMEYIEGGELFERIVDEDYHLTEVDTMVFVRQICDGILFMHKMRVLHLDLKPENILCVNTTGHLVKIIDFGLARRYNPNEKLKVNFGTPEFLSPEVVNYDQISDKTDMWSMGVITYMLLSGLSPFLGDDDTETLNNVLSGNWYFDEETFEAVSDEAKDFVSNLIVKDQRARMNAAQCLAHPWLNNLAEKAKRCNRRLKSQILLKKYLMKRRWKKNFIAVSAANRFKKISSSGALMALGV
T1 sequence (P23458 whole entry): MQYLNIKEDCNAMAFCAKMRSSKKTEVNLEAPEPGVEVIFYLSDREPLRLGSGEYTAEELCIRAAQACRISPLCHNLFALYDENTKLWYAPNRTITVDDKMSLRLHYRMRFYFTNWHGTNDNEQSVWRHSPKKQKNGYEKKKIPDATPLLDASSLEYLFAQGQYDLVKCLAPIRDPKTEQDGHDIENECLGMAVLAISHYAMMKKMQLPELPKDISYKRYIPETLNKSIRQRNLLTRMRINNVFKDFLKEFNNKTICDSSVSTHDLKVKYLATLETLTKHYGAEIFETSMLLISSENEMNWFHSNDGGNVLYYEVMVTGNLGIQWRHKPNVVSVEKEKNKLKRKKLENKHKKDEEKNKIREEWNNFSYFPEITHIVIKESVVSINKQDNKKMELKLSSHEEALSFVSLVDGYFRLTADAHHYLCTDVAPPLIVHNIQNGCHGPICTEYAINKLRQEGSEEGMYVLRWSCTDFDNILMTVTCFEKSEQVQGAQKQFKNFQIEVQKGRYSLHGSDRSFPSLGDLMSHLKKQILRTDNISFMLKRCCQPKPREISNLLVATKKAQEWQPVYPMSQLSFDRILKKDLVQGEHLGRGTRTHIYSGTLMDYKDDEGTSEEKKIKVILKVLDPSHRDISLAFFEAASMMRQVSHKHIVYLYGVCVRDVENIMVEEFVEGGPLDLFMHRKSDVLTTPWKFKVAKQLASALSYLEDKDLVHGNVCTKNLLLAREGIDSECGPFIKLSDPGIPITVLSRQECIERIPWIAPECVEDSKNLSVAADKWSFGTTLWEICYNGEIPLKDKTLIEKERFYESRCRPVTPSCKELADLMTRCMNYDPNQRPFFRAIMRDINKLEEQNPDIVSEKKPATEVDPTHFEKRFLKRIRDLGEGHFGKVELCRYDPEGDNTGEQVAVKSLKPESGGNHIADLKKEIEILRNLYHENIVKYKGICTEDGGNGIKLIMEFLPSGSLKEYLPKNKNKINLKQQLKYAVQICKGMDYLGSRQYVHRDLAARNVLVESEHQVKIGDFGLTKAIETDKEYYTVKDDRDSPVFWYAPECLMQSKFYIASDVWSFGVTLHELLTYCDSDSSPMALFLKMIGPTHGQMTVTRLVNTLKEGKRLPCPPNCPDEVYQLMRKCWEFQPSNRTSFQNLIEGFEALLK
T6 sequence (Q52WX2 whole entry): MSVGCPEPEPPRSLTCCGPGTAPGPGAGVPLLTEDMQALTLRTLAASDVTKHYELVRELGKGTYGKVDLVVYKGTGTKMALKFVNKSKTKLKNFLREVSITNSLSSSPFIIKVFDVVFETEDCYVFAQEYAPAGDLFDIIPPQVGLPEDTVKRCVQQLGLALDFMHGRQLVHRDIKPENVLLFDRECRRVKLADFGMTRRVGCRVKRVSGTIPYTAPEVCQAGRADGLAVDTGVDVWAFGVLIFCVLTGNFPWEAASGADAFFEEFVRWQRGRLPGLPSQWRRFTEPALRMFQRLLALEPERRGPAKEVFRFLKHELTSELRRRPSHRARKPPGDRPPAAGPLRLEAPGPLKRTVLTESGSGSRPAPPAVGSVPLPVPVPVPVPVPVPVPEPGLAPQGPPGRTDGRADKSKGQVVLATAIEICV

CNc1nc(Nc2ccc(C(=O)N3CCOCC3)cc2OC)nc2[nH]cc(C#N)c12 [Example 1, 2-((2-methoxy-4-(morpholine-4-carbonyl)phenyl)amino)-4-(methylamino)-7H-pyrrolo[2,3-d]pyrimidine-5-carbonitrile]
remaining binding at 1 µM ([1]; JAK1(JH1domain-catalytic)): 92% | remaining binding at 1 µM ([1]; JAK1(JH2domain-pseudokinase)): 14% | remaining binding at 1 µM [2]: 88% | remaining binding at 1 µM [3]: 62% | remaining binding at 1 µM [4]: 84% | remaining binding at 1 µM [5]: 63% | remaining binding at 1 µM [6]: 72% | remaining binding at 1 µM [7]: 60% | remaining binding at 1 µM [8]: 4.1% | remaining binding at 1 µM [9]: 100% | remaining binding at 1 µM [10]: 60%

CC1(Nc2nc(Nc3cnn([C@H]4CCN(C5COC5)C[C@@H]4F)c3Cl)nc3[nH]cc(C#N)c23)CC1 [Example 52, 2-((5-chloro-1-((3S,4S)-3-fluoro-1-(oxetane-3-yl)piperidine-4-yl)-1H-pyrazole-4-yl)amino)((1-methylcyclopropyl)amino)-7H-pyrrolo[2,3-d]pyrimidine-5-carbonitrile]
remaining binding at 1 µM ([1]; JAK1(JH1domain-catalytic)): 44% | remaining binding at 1 µM ([1]; JAK1(JH2domain-pseudokinase)): 0% | remaining binding at 1 µM [2]: 100% | remaining binding at 1 µM [3]: 0.4% | remaining binding at 1 µM [4]: 37% | remaining binding at 1 µM [5]: 70% | remaining binding at 1 µM [6]: 21% | remaining binding at 1 µM [7]: 11% | remaining binding at 1 µM [8]: 0.15% | remaining binding at 1 µM [9]: 76% | remaining binding at 1 µM [10]: 28%

CCNc1nc(Nc2ccc(C(=O)N3CCC(N4CCOCC4)CC3)cc2OC)nc2[nH]cc(C(F)(F)F)c12 [Example 104, (4-((4-(ethylamino)-5-(trifluoromethyl)-7H-pyrrolo[2,3-d]pyrimidine-2-yl)amino)-3-methoxyphenyl)(4-morpholinopiperidine-1-yl)methanone]
remaining binding at 1 µM ([1]; JAK1(JH1domain-catalytic)): 100% | remaining binding at 1 µM ([1]; JAK1(JH2domain-pseudokinase)): 55% | remaining binding at 1 µM [2]: 100% | remaining binding at 1 µM [3]: 70% | remaining binding at 1 µM [4]: 100% | remaining binding at 1 µM [5]: 87% | remaining binding at 1 µM [6]: 100% | remaining binding at 1 µM [7]: 100% | remaining binding at 1 µM [8]: 0.05% | remaining binding at 1 µM [9]: 95% | remaining binding at 1 µM [10]: 39%
